PubChem BioAssay AID1259407 (Chemical Carcinogenesis Research Information System (CCRIS), 2018)
The source made the active and inactive calls. No rule for the calls is given here.

Test system: CCRIS mutagenicity, Ames/micronucleus/aberration tests
Assay: CCRIS mutagenicity studies
[1] = Test System: AMES SALMONELLA TYPHIMURIUM, Strain/Indicator: TA98, Metabolic Activation: HAMSTER, LIVER, S-9, AROCLOR 1254 (10%), Method: PREINCUBATION
[2] = Test System: AMES SALMONELLA TYPHIMURIUM, Strain/Indicator: TA98, Metabolic Activation: NONE, Method: PREINCUBATION
[3] = Test System: AMES SALMONELLA TYPHIMURIUM, Strain/Indicator: TA98, Metabolic Activation: RAT, LIVER, S-9, AROCLOR 1254 (10%), Method: PREINCUBATION
[4] = Test System: AMES SALMONELLA TYPHIMURIUM, Strain/Indicator: TA100, Metabolic Activation: HAMSTER, LIVER, S-9, AROCLOR 1254 (10%), Method: PREINCUBATION
[5] = Test System: AMES SALMONELLA TYPHIMURIUM, Strain/Indicator: TA100, Metabolic Activation: NONE, Method: PREINCUBATION
[6] = Test System: AMES SALMONELLA TYPHIMURIUM, Strain/Indicator: TA100, Metabolic Activation: RAT, LIVER, S-9, AROCLOR 1254 (10%), Method: PREINCUBATION
[7] = Test System: AMES SALMONELLA TYPHIMURIUM, Strain/Indicator: TA1535, Metabolic Activation: HAMSTER, LIVER, S-9, AROCLOR 1254 (10%), Method: PREINCUBATION
[8] = Test System: AMES SALMONELLA TYPHIMURIUM, Strain/Indicator: TA1535, Metabolic Activation: NONE, Method: PREINCUBATION
[9] = Test System: AMES SALMONELLA TYPHIMURIUM, Strain/Indicator: TA1535, Metabolic Activation: RAT, LIVER, S-9, AROCLOR 1254 (10%), Method: PREINCUBATION
[10] = Test System: AMES SALMONELLA TYPHIMURIUM, Strain/Indicator: TA1537, Metabolic Activation: HAMSTER, LIVER, S-9, AROCLOR 1254 (10%), Method: PREINCUBATION
[11] = Test System: AMES SALMONELLA TYPHIMURIUM, Strain/Indicator: TA1537, Metabolic Activation: NONE, Method: PREINCUBATION
[12] = Test System: AMES SALMONELLA TYPHIMURIUM, Strain/Indicator: TA1537, Metabolic Activation: RAT, LIVER, S-9, AROCLOR 1254 (10%), Method: PREINCUBATION
[13] = Test System: AMES SALMONELLA TYPHIMURIUM, Strain/Indicator: TA98, Metabolic Activation: NONE, Method: STANDARD PLATE
[14] = Test System: AMES SALMONELLA TYPHIMURIUM, Strain/Indicator: TA100, Metabolic Activation: NONE, Method: STANDARD PLATE
[15] = Test System: AMES SALMONELLA TYPHIMURIUM, Strain/Indicator: TA1538, Metabolic Activation: NONE, Method: STANDARD PLATE
[16] = Test System: AMES SALMONELLA TYPHIMURIUM, Strain/Indicator: TA98, Metabolic Activation: RAT, LIVER, S-9, AROCLOR 1254, Method: STANDARD PLATE
[17] = Test System: AMES SALMONELLA TYPHIMURIUM, Strain/Indicator: TA100, Metabolic Activation: RAT, LIVER, S-9, AROCLOR 1254, Method: STANDARD PLATE

CCN(CC)CC
mutagenic call [1]: inactive; negative | mutagenic call [2]: inactive; negative | mutagenic call [3]: inactive; negative | mutagenic call [4]: inactive; negative | mutagenic call [5]: inactive; negative | mutagenic call [6]: inactive; negative | mutagenic call [7]: inactive; negative | mutagenic call [8]: inactive; negative | mutagenic call [9]: inactive; negative | mutagenic call [10]: inactive; negative | mutagenic call [11]: inactive; negative | mutagenic call [12]: inactive; negative

O=C(Oc1ccccc1)c1ccccc1O
mutagenic call [1]: inactive; negative | mutagenic call [2]: inactive; negative | mutagenic call [3]: inactive; negative | mutagenic call [4]: inactive; negative | mutagenic call [5]: inactive; negative | mutagenic call [6]: inactive; negative | mutagenic call [7]: inactive; negative | mutagenic call [8]: inactive; negative | mutagenic call [9]: inactive; negative | mutagenic call [10]: inactive; negative | mutagenic call [11]: inactive; negative | mutagenic call [12]: inactive; negative

COc1cccc2c1C(=O)c1c(O)c3c(c(O)c1C2=O)C[C@@](O)(C(=O)CO)C[C@@H]3O[C@H]1C[C@H](N)C[C@H](C)O1
mutagenic call (Test System: AMES SALMONELLA TYPHIMURIUM, Strain/Indicator: GW257, Metabolic Activation: NONE, Method: STANDARD PLATE): active; positive | mutagenic call [13]: active; positive | mutagenic call [14]: active; positive | mutagenic call [15]: active; positive | mutagenic call (Test System: CHINESE HAMSTER V-79, Strain/Indicator: V-79/6-THIOGUANINE, Metabolic Activation: NONE, Method: SUSPENSION/PLATE): active; positive | mutagenic call (Test System: CHINESE HAMSTER V-79, Strain/Indicator: V-79/6-THIOGUANINE, Metabolic Activation: RAT, LIVER, HOMOGENATE, Method: SUSPENSION/PLATE): inactive; negative

C/C(O)=C1/C(=O)[C@@H]2[C@H]3c4c[nH]c5cccc(c45)C[C@H]3C(C)(C)N2C1=O
mutagenic call [5]: inactive; negative | mutagenic call (Test System: AMES SALMONELLA TYPHIMURIUM, Strain/Indicator: TA100, Metabolic Activation: RAT, LIVER, S-9, PHENOBARBITAL, Method: PREINCUBATION): inactive; negative

COc1nsc2c(N)cccc12
mutagenic call (Test System: AMES SALMONELLA TYPHIMURIUM, Strain/Indicator: TA98, Metabolic Activation: S-9, Method: STANDARD PLATE): active; positive

Cc1cc(C)cc(C)c1
mutagenic call (Test System: AMES SALMONELLA TYPHIMURIUM, Strain/Indicator: TA97A, Metabolic Activation: NONE, Method: STANDARD PLATE): inactive; negative | mutagenic call (Test System: AMES SALMONELLA TYPHIMURIUM, Strain/Indicator: TA97A, Metabolic Activation: RAT, LIVER, S-9, AROCLOR 1254, Method: STANDARD PLATE): inactive; negative | mutagenic call [13]: inactive; negative | mutagenic call [16]: inactive; negative | mutagenic call [14]: inactive; negative | mutagenic call [17]: inactive; negative | mutagenic call (Test System: AMES SALMONELLA TYPHIMURIUM, Strain/Indicator: TA102, Metabolic Activation: NONE, Method: STANDARD PLATE): inactive; negative | mutagenic call (Test System: AMES SALMONELLA TYPHIMURIUM, Strain/Indicator: TA102, Metabolic Activation: RAT, LIVER, S-9, AROCLOR 1254, Method: STANDARD PLATE): inactive; negative

ONc1ccc(Br)cc1
mutagenic call (Test System: E. COLI, Strain/Indicator: WP2 UVRA, Metabolic Activation: NONE, Method: FLUCTUATION TEST): inactive; negative

CCCCCC[C@H](C/C=C\CCCCCCCC(=O)OC)OC(C)=O
mutagenic call (Test System: AMES SALMONELLA TYPHIMURIUM, Strain/Indicator: TA97, Metabolic Activation: NONE, Method: PREINCUBATION): inactive; negative | mutagenic call (Test System: AMES SALMONELLA TYPHIMURIUM, Strain/Indicator: TA97, Metabolic Activation: RAT, LIVER, S-9, AROCLOR 1254, Method: PREINCUBATION): inactive; negative | mutagenic call (Test System: AMES SALMONELLA TYPHIMURIUM, Strain/Indicator: TA102, Metabolic Activation: NONE, Method: PREINCUBATION): inactive; negative | mutagenic call (Test System: AMES SALMONELLA TYPHIMURIUM, Strain/Indicator: TA102, Metabolic Activation: RAT, LIVER, S-9, AROCLOR 1254, Method: PREINCUBATION): inactive; negative

ClNc1nc(NCl)nc(NCl)n1
mutagenic call (Test System: AMES SALMONELLA TYPHIMURIUM, Strain/Indicator: TA98, Metabolic Activation: HAMSTER, LIVER, S-9, AROCLOR 1254, Method: STANDARD PLATE): inactive; negative | mutagenic call [13]: inactive; negative | mutagenic call [16]: inactive; negative | mutagenic call (Test System: AMES SALMONELLA TYPHIMURIUM, Strain/Indicator: TA100, Metabolic Activation: HAMSTER, LIVER, S-9, AROCLOR 1254, Method: STANDARD PLATE): inactive; negative | mutagenic call [14]: inactive; negative | mutagenic call [17]: inactive; negative | mutagenic call (Test System: AMES SALMONELLA TYPHIMURIUM, Strain/Indicator: TA1535, Metabolic Activation: HAMSTER, LIVER, S-9, AROCLOR 1254, Method: STANDARD PLATE): inactive; negative | mutagenic call (Test System: AMES SALMONELLA TYPHIMURIUM, Strain/Indicator: TA1535, Metabolic Activation: NONE, Method: STANDARD PLATE): inactive; negative | mutagenic call (Test System: AMES SALMONELLA TYPHIMURIUM, Strain/Indicator: TA1535, Metabolic Activation: RAT, LIVER, S-9, AROCLOR 1254, Method: STANDARD PLATE): inactive; negative | mutagenic call (Test System: AMES SALMONELLA TYPHIMURIUM, Strain/Indicator: TA1537, Metabolic Activation: HAMSTER, LIVER, S-9, AROCLOR 1254, Method: STANDARD PLATE): inactive; negative | mutagenic call (Test System: AMES SALMONELLA TYPHIMURIUM, Strain/Indicator: TA1537, Metabolic Activation: NONE, Method: STANDARD PLATE): inactive; negative | mutagenic call (Test System: AMES SALMONELLA TYPHIMURIUM, Strain/Indicator: TA1537, Metabolic Activation: RAT, LIVER, S-9, AROCLOR 1254, Method: STANDARD PLATE): inactive; negative | mutagenic call (Test System: AMES SALMONELLA TYPHIMURIUM, Strain/Indicator: TA1538, Metabolic Activation: HAMSTER, LIVER, S-9, AROCLOR 1254, Method: STANDARD PLATE): inactive; negative | mutagenic call [15]: inactive; negative | mutagenic call (Test System: AMES SALMONELLA TYPHIMURIUM, Strain/Indicator: TA1538, Metabolic Activation: RAT, LIVER, S-9, AROCLOR 1254, Method: STANDARD PLATE): inactive; negative | mutagenic call (Test System: MOUSE LYMPHOMA, Strain/Indicator: L5178Y (TK+/TK-), Metabolic Activation: NONE, Method: SUSPENSION/PLATE): inactive; negative. reevaluation of results: negative | mutagenic call (Test System: Mouse lymphoma, Strain/Indicator: L5178Y (tk+/tk-), Metabolic Activation: Rat, Liver, S-9, Aroclor 1254, Method: Suspension/plate): active; positive

COc1ccc2[nH]c3c(C)cc(N)c(C)c3c2c1
mutagenic call [13]: inactive; negative | mutagenic call (Test System: AMES SALMONELLA TYPHIMURIUM, Strain/Indicator: TA98, Metabolic Activation: RAT LIVER S-9, AROCLOR 1254, Method: STANDARD PLATE): active; positive | mutagenic call [14]: inactive; negative | mutagenic call (Test System: AMES SALMONELLA TYPHIMURIUM, Strain/Indicator: TA100, Metabolic Activation: RAT LIVER S-9, AROCLOR 1254, Method: STANDARD PLATE): inactive; negative

OC1c2c(ccc3c2ccc2ccccc23)C2OC2C1O (centres undefined)
mutagenic call [2]: active; positive | mutagenic call (Test System: CHINESE HAMSTER V-79, Strain/Indicator: V-79/6-THIOGUANINE, Metabolic Activation: NONE): active; positive
